System: bacterial strain LF82 binding to the glycoprotein BSA-(Mannose)3 (FimH antagonists)
Assay: Bacterial Binding Assay (BBA)
Assay type: cell-based, Escherichia coli
Conditions: read-out: Bacterial Binding Assay IC50 ± SEM
From the text: The purpose of the Bacterial Binding Assay (BBA) is to determine the inhibition activity of selective FimH antagonists on the bacterial strain LF82 binding to the glycoprotein BSA-(Mannose)3.
Below is a list of the Materials used to run the BBA are described below. • 1. LB broth: Supplier: Gibco, #10855 • 2. D-PBS: Supplier: Wisent, #311-425-CL • 3. LB agar plates • 4. 96-well black plate (high binding): Supplier: Costar, #3925 • 5. TopSeal™-A adhesive sealing films; Supplier PerkinElmer, #6005185 • 6. Carbonate-bicarbonate buffer pH 9.6 tablets, Supplier: Medicago, #09-8922-24 • 7. Water, Supplier: Gibco, #15230-162 • 8. Bovine serum albumin (BSA): Supplier: Sigma, #A-7888 • 9. (Man)3-BSA (α1-3, α1-6 Mannotriose-BSA, 1 mg), V-Labs, #NGP1336, lot# HGDX37-169-1 • 10. Tween 20: Supplier: Sigma, #P9416 • 11. Bright-Glo Luciferase Assay System: Supplier: Promega, #E2610 • 12. LF82/Luciferase strain: Invasive ability of an Escherichia coli strain isolated from the ileal mucosa of a patient with Crohn's disease. Boudeau J, Glasser A L, Masseret E, Joly B, Darfeuille-Michaud A, Infect Immun. 1999, 67(9), 4499-509
Solutions and buffers used to run the BBA are described below. • 1. 0.04M carbonate-bicarbonate buffer (coating buffer) • 2. 40 μg/mL BSA-(Man)3: Dissolve 1 mg of (Man)3-BSA in 25 mL of water. • 3. 4000 μg/mL BSA • 4. 40 μg/mL BSA • 5. 1 μg/mL BSA-(Man)3: 150 μL of 40 μg/mL BSA-(Man)3+5.85 mL of 40 μg/mL BSA • 6. 0.5 μg/mL BSA-(Man)3 in 0.02M carbonate-bicarbonate buffer. • 7. 20 μg/mL BSA in 0.02M carbonate-bicarbonate buffer • 8. Blocking buffer (2% BSA/DPBS): 1 g of BSA in 50 mL D-PBS • 9. 2× binding buffer (0.2% BSA/D-PBS): 5 mL of blocking buffer+45 mL D-PBS. • 10. Washing buffer (D-PBS/0.01% Tween 20): 10 μL of Tween 20 in 100 mL D-PBS. • 11. 1× Bright-Glo Luciferase substrate: Dilute 1:1 the Bright-Glo Luciferase Assay System with D-PBS
The experimental protocol used in this example to run the BBA is described below.
Overnight culture of LF82/Luciferase strain: Into two Falcon 50 mL tubes, add 20 mL of LB+20 μL of 50 mg/mL Kanamycin and inoculate with a loop from glycerol stock of the LF82/Luciferase strain. Incubate overnight at 37° C. with no shaking.
Glycoprotein coating of 96-well plates: Add 100 μL/well of 0.5-2 μg/mL BSA-(Man)3. 20 μg/mL BSA is used as the control background. Seal plate using an adhesive sealing film and incubate overnight at room temperature. Wash the 96-well plate three times with 150 μL/well of D-PBS, add 170 μL/well of blocking solution and incubate 45 min (minimum) at room temperature.
Preparation of bacterial suspension: Mix the two cultures tubes (40 mL) and perform a 1:10 dilution in LB (900 μl LB+100 μl culture. Measure optical density (OD) of the bacterial cultures. OD1 ˜5×10^8 cells/mL. Centrifuge LF82 culture for 20 min at 3500 rpm at room temperature. Re-suspend bacterial pellet in D-PBS and centrifuge again for 20 min at 3500 rpm. Re-suspend bacterial pellet in D-PBS to obtain a bacterial concentration of 2×10^9 bacteria/mL. Dilute 1/10 in D-PBS to obtain a final bacterial concentration of 2×10^8 bacteria/mL (=107 bacteria/50 μL). Perform 1/10 serial dilutions in LB of each bacterial suspension, plate 10 μL of dilutions on LB agar plates (final dilutions of 10^−7) and incubate overnight at 37° C. and count CFUs to determine the actual bacteria density in the assay.
Bacterial binding assay: Add 147 μL 2× binding buffer to compound plate (containing 3 μL of compound). After blocking step is performed (at least 45 min), wash plates three times with 200 μL/well of D-PBS. With a 100 μL multichannel manual pipettor, add 50 μL/well of compound diluted in 2× binding buffer. With a 100 μL multichannel manual pipettor, add 50 μL/well of bacterial suspension. Agitate at slow speed for 1 min and incubate 40-75 min at room temperature. Wash 5 times with 150 μL/well of washing buffer and then once with D-PBS. Add 100 μL/well of 1× Bright-Glo Luciferase substrate. […]

Row | SMILES | IC50 [nM]
1 | CCCCc1cc(C#C[C@H]2O[C@H](CO)[C@@H](O)[C@H](O)[C@@H]2O)c2[nH]ncc2c1 [Compound 24, (2R,3S,4R,5S,6R)-2-[2-(5-butyl-1H-indazol-7-yl)ethynyl]-6-(hydroxymethyl)tetrahydropyran-3,4,5-triol] | 1 ± 0.2
2 | OC[C@H]1O[C@H](C#Cc2cc(-c3ccccc3)cc3cn[nH]c23)[C@@H](O)[C@@H](O)[C@@H]1O [Compound 25, (2R,3S,4R,5S,6R)-2-(hydroxymethyl)-6-[2-(5-phenyl-1H-indazol-7-yl)ethynyl]tetrahydropyran-3,4,5-triol] | 0.4 ± 0.04
3 | Cc1ccccc1-c1cc(C#C[C@H]2O[C@H](CO)[C@@H](O)[C@H](O)[C@@H]2O)c2[nH]ncc2c1 [Compound 26] | 0.7 ± 0.3
4 | OC[C@H]1O[C@H](C#Cc2cc(-c3cccnc3)cc3cn[nH]c23)[C@@H](O)[C@@H](O)[C@@H]1O [Compound 27, (2R,3S,4R,5S,6R)-2-(hydroxymethyl)-6-[2-[5-(3-pyridyl)-1H-indazol-7-yl]ethynyl]tetrahydropyran-3,4,5-triol] | 0.2 ± 0.03
5 | O=[N+]([O-])c1ccc(-c2cc(C#C[C@H]3O[C@H](CO)[C@@H](O)[C@H](O)[C@@H]3O)c3[nH]ncc3c2)cc1 [Compound 28, (2R,3S,4R,5S,6R)-2-(hydroxymethyl)-6-[2-[5-(4-nitrophenyl)-1H-indazol-7-yl]ethynyl]tetrahydropyran-3,4,5-triol] | 0.6 ± 0.4
6 | CN(C)c1ccc(-c2cc(C#C[C@H]3O[C@H](CO)[C@@H](O)[C@H](O)[C@@H]3O)c3[nH]ncc3c2)cc1 [Compound 29, (2R,3S,4R,5S,6R)-2-[2-[5-[4-(dimethylamino)phenyl]-1H-indazol-7-yl]ethynyl]-6-(hydroxymethyl)tetrahydropyran-3,4,5-triol] | 1 ± 0.7
7 | COc1ccc(-c2cc(C#C[C@H]3O[C@H](CO)[C@@H](O)[C@H](O)[C@@H]3O)c3[nH]ncc3c2)cc1 [Compound 30, (2R,3S,4R,5S,6R)-2-(hydroxymethyl)-6-[2-[5-(4-methoxyphenyl)-1H-indazol-7-yl]ethynyl]tetrahydropyran-3,4,5-triol] | 0.5 ± 0.2
8 | NC(=O)c1cccc(-c2cc(C#C[C@H]3O[C@H](CO)[C@@H](O)[C@H](O)[C@@H]3O)c3[nH]ncc3c2)c1 [Compound 31, 3-[7-[2-[(2R,3S,4R,5S,6R)-3,4,5-trihydroxy-6-(hydroxymethyl)tetrahydropyran-2-yl]ethynyl]-1H-indazol-5-yl]benzamide] | 0.7 ± 0.01
9 | OC[C@H]1O[C@H](C#Cc2cc(-c3ccc4nccn4c3)cc3cn[nH]c23)[C@@H](O)[C@@H](O)[C@@H]1O [Compound 32, (2R,3S,4R,5S,6R)-2-(hydroxymethyl)-6-[2-(5-imidazo[1,2-a]pyridin-6-yl-1H-indazol-7-yl)ethynyl]tetrahydropyran-3,4,5-triol] | 0.6 ± 0.005
10 | Cn1cnc2ccc(-c3cc(C#C[C@H]4O[C@H](CO)[C@@H](O)[C@H](O)[C@@H]4O)c4[nH]ncc4c3)cc21 [Compound 33, (2R,3S,4R,5S,6R)-2-(hydroxymethyl)-6-[2-[5-(3-methylbenzimidazol-5-yl)-1H-indazol-7-yl]ethynyl]tetrahydropyran-3,4,5-triol] | 0.4 ± 0.05
11 | Cc1cnccc1-c1cc(C#C[C@H]2O[C@H](CO)[C@@H](O)[C@H](O)[C@@H]2O)c2[nH]ncc2c1 [Compound 34, (2R,3S,4R,5S,6R)-2-(hydroxymethyl)-6-[2-[5-(3-methyl-4-pyridyl)-1H-indazol-7-yl]ethynyl]tetrahydropyran-3,4,5-triol] | 0.4 ± 0.09
12 | CS(=O)(=O)c1ccc(-c2cc(C#C[C@H]3O[C@H](CO)[C@@H](O)[C@H](O)[C@@H]3O)c3[nH]ncc3c2)cc1 [Compound 35, (2R,3S,4R,5S,6R)-2-(hydroxymethyl)-6-[2-[5-(4-methylsulfonylphenyl)-1H-indazol-7-yl]ethynyl]tetrahydropyran-3,4,5-triol] | 0.5 ± 0.1
13 | CC(=O)Nc1cccc(-c2cc(C#C[C@H]3O[C@H](CO)[C@@H](O)[C@H](O)[C@@H]3O)c3[nH]ncc3c2)c1 [Compound 36, N-[3-[7-[2-[(2R,3S,4R,5S,6R)-3,4,5-trihydroxy-6-(hydroxymethyl)tetrahydropyran-2-yl]ethynyl]-1H-indazol-5-yl]phenyl]acetamide] | 2 ± 0.2
14 | OC[C@H]1O[C@H](C#Cc2cc(-c3ccc4c(c3)OCO4)cc3cn[nH]c23)[C@@H](O)[C@@H](O)[C@@H]1O [Compound 37, (2R,3S,4R,5S,6R)-2-[2-[5-(1,3-benzodioxol-5-yl)-1H-indazol-7-yl]ethynyl]-6-(hydroxymethyl)tetrahydropyran-3,4,5-triol] | 0.7 ± 0.02
15 | COc1cccc(-c2cc(C#C[C@H]3O[C@H](CO)[C@@H](O)[C@H](O)[C@@H]3O)c3[nH]ncc3c2)c1 [Compound 38, (2R,3S,4R,5S,6R)-2-(hydroxymethyl)-6-[2-[5-(3-methoxyphenyl)-1H-indazol-7-yl]ethynyl]tetrahydropyran-3,4,5-triol] | 0.8 ± 0.5
16 | Cc1nnc(-c2ccc(-c3cc(C#C[C@H]4O[C@H](CO)[C@@H](O)[C@H](O)[C@@H]4O)c4[nH]ncc4c3)cc2)o1 [Compound 39, (2R,3S,4R,5S,6R)-2-(hydroxymethyl)-6-[2-[5-[4-(5-methyl-1,3,4-oxadiazol-2-yl)phenyl]-1H-indazol-7-yl]ethynyl]tetrahydropyran-3,4,5-triol] | 0.2 ± 0.05
17 | OC[C@H]1O[C@H](C#Cc2cc(-c3ccc4cc[nH]c4c3)cc3cn[nH]c23)[C@@H](O)[C@@H](O)[C@@H]1O [Compound 40, (2R,3S,4R,5S,6R)-2-(hydroxymethyl)-6-[2-[5-(1H-indol-6-yl)-1H-indazol-7-yl]ethynyl]tetrahydropyran-3,4,5-triol] | 1 ± 0.3
18 | NS(=O)(=O)c1cccc(-c2cc(C#C[C@H]3O[C@H](CO)[C@@H](O)[C@H](O)[C@@H]3O)c3[nH]ncc3c2)c1 [Compound 41, 3-[7-[2-[(2R,3S,4R,5S,6R)-3,4,5-trihydroxy-6-(hydroxymethyl)tetrahydropyran-2-yl]ethynyl]-1H-indazol-5-yl]benzenesulfonamide] | 0.4 ± 0.04
19 | CNC(=O)c1cncc(-c2cc(C#C[C@H]3O[C@H](CO)[C@@H](O)[C@H](O)[C@@H]3O)c3[nH]ncc3c2)c1 [Compound 42, N-methyl-5-[7-[2-[(2R,3S,4R,5S,6R)-3,4,5-trihydroxy-6-(hydroxymethyl)tetrahydropyran-2-yl]ethynyl]-1H-indazol-5-yl]pyridine-3-carboxamide] | 0.6 ± 0.2
20 | OC[C@H]1O[C@H](C#Cc2cc(C#CC3CC3)cc3cn[nH]c23)[C@@H](O)[C@@H](O)[C@@H]1O [Compound 43, (2R,3S,4R,5S,6R)-2-[2-[5-(2-cyclopropylethynyl)-1H-indazol-7-yl]ethynyl]-6-(hydroxymethyl)tetrahydropyran-3,4,5-triol] | 2 ± 1
21 | CC(C)(C)C#Cc1cc(C#C[C@H]2O[C@H](CO)[C@@H](O)[C@H](O)[C@@H]2O)c2[nH]ncc2c1 [Compound 44, (2R,3S,4R,5S,6R)-2-[2-[5-(3,3-dimethylbut-1-ynyl)-1H-indazol-7-yl]ethynyl]-6-(hydroxymethyl)tetrahydropyran-3,4,5-triol] | 5 ± 0.5
